Tested on: Aspergillus niger
Experiment: Adhesion test with molds on silicone sealant DC3390 film
Settings: 1 wt. % surfactant in silicone sealant DC3390; adhered Aspergillus niger spores (CFU) after 48 hours at 25° C.; sealant with no active substance = 100
Description: The silicone sealant DC3390 was used. 1 wt. % of surfactant was added and homogenized in the Speedmixer. The surfactants indicated in Table 1 were tested in comparison with the joint sealing compound without the addition of the surfactants being tested. The resulting composition was spread as the film (22×22×2 mm) and left to harden in air. The resulting test specimen was disinfected with 70% ethanol for 10 minutes, then washed with distilled water and dried. The test specimens were subsequently coated with a germ suspension of Aspergillus niger and incubated for one hour. The germ suspension was then siphoned off and the specimen was washed twice. The specimens were transferred into sterile tubes that contained 5 ml of inactivation solution and shaken on a shaker for 10 minutes at 400 rpm. To determine the number of adhered spores, firstly the specimens were placed in sterile 6-well plates and covered with wort agar with INT, secondly a determination of the colony count of the inactivation solution was carried out by the inoculation plate method. After 48 hours incubation at 25° C., the number of colony forming units (CFU) was subsequently determined.

For `CCO[Si](CCC(F)(F)C(F)(F)C(F)(F)C(F)(F)C(F)(F)C(F)(F)F)(OCC)OCC` [DYNASYLAN F8261, perfluorinated octyltriethoxysilane], the “Mold adhesion [%]” value was 80%.

— patent US7910647B2, “Adhesion inhibition of microorganisms by non-ionic surfactants” (Henkel AG & Co. KGaA, priority 2003, dated 2011)
